Measured values published in PMC7539012, “Hyperphosphorylated tau aggregation and cytotoxicity modulators screen identified prescription drugs linked to Alzheimer's disease and cognitive functions” (Scientific Reports, 2020).
Structures can show the parent of a compound that is named as a salt. Where two headings read alike, the source gives them in different places.

System: T1, 1N4R p-tau
T1 construct: made in house; host or cells: E. coli (PIMAX system)
Assay: p-tau aggregation modulator screen of 1280-compound library (ThS fluorescence net change over 16 h);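 as to ThS net change: 30 µM compound with 6 µM p-tau over 16 h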
Format: biochemical
Parameters: key to PTAI>3SD: *: PTAI>3SD

[1] = 1280-compound library screen, ThS fluorescence net change over 16 h
[2] = p-tau aggregation modulator screen of the compound library, ThS fluorescence net change
[3] = p-tau aggregation modulator screen of 1280-compound library, […]
[4] = p-tau aggregation modulator screen of 1280-compound library, ThS fluorescence net change
[5] = 1280-compound library screen, […]
[6] = library screen, ThS fluorescence net change over 16 h with p-tau

SMILES: CCCC[N+]1(C)[C@@H]2C[C@@H](OC(=O)[C@H](CO)c3ccccc3)C[C@H]1[C@@H]1O[C@@H]12.[Br-] (some centres unmarked) [Butylscopolammonium (n-) bromide]
- ThS net change [1]: 388

SMILES: Cn1c(=O)c2c(ncn2C)n(C)c1=O [Caffeine]
- ThS net change [2]: 428

SMILES: C=C1/C(=C\C=C2/CCC[C@]3(C)[C@@H]([C@H](C)/C=C/[C@@H](O)C4CC4)CC[C@@H]23)C[C@@H](O)C[C@@H]1O [Calcipotriene]
- ThS net change [1]: 407

SMILES: CC[C@@]1(O)C(=O)OCc2c1cc1n(c2=O)Cc2cc3ccccc3nc2-1 [Camptothecine (S,+)]
- ThS net change [3]: 350

SMILES: CCN(CC)CCNC(C(=O)OCCC(C)C)c1ccccc1.Cl.Cl (centres unmarked) [Camylofine chlorhydrate]
- ThS net change [4]: 342

SMILES: CCOc1nc2cccc(C(=O)O)c2n1Cc1ccc(-c2ccccc2-c2nnn[nH]2)cc1 [Candesartan]
- ThS net change [2]: 415

SMILES: C[C@]12CCC(=O)C=C1C=C[C@@H]1[C@@H]2CC[C@@]2(C)[C@H]1CC[C@@]2(O)CCC(=O)[O-].[K+] [Canrenoic acid potassium salt]
- ThS net change [3]: 329

SMILES: C[C@]12CCC(=O)C=C1C=C[C@@H]1[C@@H]2CC[C@@]2(C)[C@H]1CC[C@@]21CCC(=O)O1 [Canrenone]
- ThS net change [2]: 462

SMILES: C[C@H](CS)C(=O)N1CCC[C@H]1C(=O)O [Captopril]
- ThS net change [4]: 370

SMILES: C[N+](C)(C)CCOC(N)=O [Carbachol]
- ThS net change [2]: 440

SMILES: COC(=O)N/N=C/c1c[n+]([O-])c2ccccc2[n+]1[O-] [Carbadox]
- ThS net change [1]: 380

SMILES: NC(=O)N1c2ccccc2C=Cc2ccccc21 [Carbamazepine]
- ThS net change [4]: 370

SMILES: CC1(C)[C@@H](OC(=O)CCC(=O)O)CC[C@]2(C)[C@H]3C(=O)C=C4[C@@H]5C[C@@](C)(C(=O)O)CC[C@]5(C)CC[C@@]4(C)[C@]3(C)CC[C@@H]12 [Carbenoxolone disodium salt]
- ThS net change [2]: 460

SMILES: CCN(CC)CCOCCOC(=O)C1(c2ccccc2)CCCC1 [Carbetapentane citrate]
- ThS net change [1]: 402

SMILES: C[C@@](Cc1ccc(O)c(O)c1)(NN)C(=O)O [Carbidopa]
- ThS net change [1]: 395

SMILES: CCOC(=O)n1ccn(C)c1=S [Carbimazole]
- ThS net change [1]: 380

SMILES: CN(C)CCOC(c1ccc(Cl)cc1)c1ccccn1.O=C(O)/C=C\C(=O)O (centres unmarked) [Carbinoxamine maleate salt]
- ThS net change [2]: 427

SMILES: CCCC(C)(COC(N)=O)COC(=O)NC(C)C (centres unmarked) [Carisoprodol]
- ThS net change [3]: 370

SMILES: CCCCCCNC(=O)n1cc(F)c(=O)[nH]c1=O [Carmofur, 1-hexylcarbamoyl-5-fluorouracil]
- ThS net change [2]: 1524

SMILES: CC(C(=O)O)c1ccc2c(c1)[nH]c1ccc(Cl)cc12 (centres unmarked) [Carprofen]
- ThS net change [2]: 478

SMILES: CC(C)(C)NCC(O)COc1cccc2c1CCC(=O)N2 (centres unmarked) [Carteolol hydrochloride]
- ThS net change [4]: 377

SMILES: COc1ccccc1OCCNCC(O)COc1cccc2[nH]c3ccccc3c12 (centres unmarked) [Carvedilol]
- ThS net change [1]: 394

SMILES: CCC1=C[C@@H]2C[N@]3CCc4c([nH]c5ccccc45)[C@@](C(=O)OC)(C2)[C@@H]13 [Catharanthine]
- ThS net change [3]: 374

SMILES: N[C@@H](C(=O)N[C@@H]1C(=O)N2C(C(=O)O)=C(Cl)CS[C@H]12)c1ccccc1.O [Cefaclor hydrate]
- ThS net change [5]: 392

SMILES: CC1=C(C(=O)O)N2C(=O)[C@@H](NC(=O)[C@H](N)c3ccc(O)cc3)[C@H]2SC1 [Cefadroxil]
- ThS net change [2]: 413

SMILES: Cc1nnc(SCC2=C(C(=O)O)N3C(=O)[C@@H](NC(=O)Cn4cnnn4)[C@H]3SC2)s1 [Cefazolin sodium salt]
- ThS net change [1]: 381

SMILES: C=CC1=C(C(=O)O)N2C(=O)[C@@H](NC(=O)/C(=N\O)c3csc(N)n3)[C@H]2SC1 [Cefdinir]
- ThS net change [2]: 454

SMILES: CO/N=C(\C(=O)N[C@@H]1C(=O)N2C(C(=O)O)=C(C[N+]3(C)CCCC3)CS[C@H]12)c1csc(N)n1 [Cefepime hydrochloride]
- ThS net change [2]: 418

SMILES: C=CC1=C(C(=O)O)N2C(=O)[C@@H](NC(=O)/C(=N\OCC(=O)O)c3csc(N)n3)[C@H]2SC1 [Cefixime]
- ThS net change [1]: 408

SMILES: CO[C@@]1(NC(=O)CSCC#N)C(=O)N2C(C(=O)O)=C(CSc3nnnn3C)CS[C@@H]21 [Cefmetazole sodium salt]
- ThS net change [2]: 468

SMILES: CCN1CCN(C(=O)N[C@@H](C(=O)N[C@@H]2C(=O)N3C(C(=O)O)=C(CSc4nnnn4C)CS[C@H]23)c2ccc(O)cc2)C(=O)C1=O [Cefoperazone dihydrate]
- ThS net change [4]: 363

SMILES: NCc1ccccc1CC(=O)N[C@@H]1C(=O)N2C(C(=O)O)=C(CSc3nnnn3CC(=O)O)CS[C@H]12 [Ceforanide]
- ThS net change [4]: 351

SMILES: CO/N=C(\C(=O)N[C@@H]1C(=O)N2C(C(=O)O)=C(COC(C)=O)CS[C@H]12)c1csc(N)n1 [Cefotaxime sodium salt]
- ThS net change [1]: 384

SMILES: CO[C@@]1(NC(=O)C2SC(=C(C(N)=O)C(=O)O)S2)C(=O)N2C(C(=O)O)=C(CSc3nnnn3C)CS[C@@H]21 (some centres unmarked) [Cefotetan]
- ThS net change [1]: 392

SMILES: CN(C)CCn1nnnc1SCC1=C(C(=O)O)N2C(=O)[C@@H](NC(=O)Cc3csc(N)n3)[C@H]2SC1 [Cefotiam hydrochloride]
- ThS net change [2]: 423

SMILES: CO[C@@]1(NC(=O)Cc2cccs2)C(=O)N2C(C(=O)O)=C(COC(N)=O)CS[C@@H]21 [Cefoxitin sodium salt]
- ThS net change [4]: 354

SMILES: Cc1cc(O)c(C(=O)N[C@@H](C(=O)N[C@@H]2C(=O)N3C(C(=O)O)=C(CSc4nnnn4C)CS[C@H]23)c2ccc(O)cc2)cn1 [Cefpiramide]
- ThS net change [1]: 407

SMILES: COCC1=C(C(=O)OC(C)OC(=O)OC(C)C)N2C(=O)[C@@H](NC(=O)/C(=N\OC)c3csc(N)n3)[C@H]2SC1 (some centres unmarked) [Cefpodoxime proxetil]
- ThS net change [2]: 454

SMILES: NC(=O)c1cc[n+](CC2=C(C(=O)O)N3C(=O)[C@@H](NC(=O)[C@@H](c4ccccc4)S(=O)(=O)[O-])[C@H]3SC2)cc1 [Cefsulodin sodium salt]
- ThS net change [1]: 388

SMILES: CC(C)(O/N=C(\C(=O)N[C@@H]1C(=O)N2C(C(=O)[O-])=C(C[n+]3ccccc3)CS[C@H]12)c1csc(N)n1)C(=O)O [Ceftazidime pentahydrate]
- ThS net change [4]: 358

SMILES: Nc1nc(/C(=C/CC(=O)O)C(=O)N[C@@H]2C(=O)N3C(C(=O)O)=CCS[C@H]23)cs1 [Ceftibuten]
- ThS net change [2]: 441

SMILES: CO/N=C(\C(=O)N[C@@H]1C(=O)N2C(C(=O)OC(C)OC(C)=O)=C(COC(N)=O)CS[C@H]12)c1ccco1 (some centres unmarked) [Cefuroxime axetil]
- ThS net change [2]: 445

SMILES: CO/N=C(\C(=O)N[C@@H]1C(=O)N2C(C(=O)O)=C(COC(N)=O)CS[C@H]12)c1ccco1 [Cefuroxime sodium salt]
- ThS net change [4]: 365

SMILES: Cc1ccc(-c2cc(C(F)(F)F)nn2-c2ccc(S(N)(=O)=O)cc2)cc1 [Celecoxib]
- ThS net change [2]: 429

SMILES: CCN(CC)C(=O)Nc1ccc(OCC(O)CNC(C)(C)C)c(C(C)=O)c1 (centres unmarked) [Celiprolol HCl]
- ThS net change [1]: 396

SMILES: CC(=O)OCC1=C(C(=O)O)N2C(=O)[C@@H](N)[C@H]2SC1 [Cephalosporanic acid, 7-amino]
- ThS net change [5]: 378

SMILES: CC(=O)OCC1=C(C(=O)O)N2C(=O)[C@@H](NC(=O)Cc3cccs3)[C@H]2SC1 [Cephalothin sodium salt]
- ThS net change [2]: 446

SMILES: O=C(O)COCCN1CCN(C(c2ccccc2)c2ccc(Cl)cc2)CC1 (centres unmarked) [Cetirizine dihydrochloride]
- ThS net change: 373

SMILES: C[C@H](CCC(=O)O)[C@H]1CC[C@H]2[C@@H]3[C@H](O)C[C@@H]4C[C@H](O)CC[C@]4(C)[C@H]3CC[C@]12C [Chenodiol]
- ThS net change [1]: 394

SMILES: COc1cc(-c2ccc(/N=N/c3ccc4c(S(=O)(=O)[O-])cc(S(=O)(=O)[O-])c(N)c4c3O)c(OC)c2)ccc1/N=N/c1ccc2c(S(=O)(=O)[O-])cc(S(=O)(=O)[O-])c(N)c2c1O.[Na+].[Na+].[Na+].[Na+] [Chicago sky blue 6B]
- PTAI>3SD (flag: p-tau aggregation inhibitor, ThS net change more than 3 SD from mean): *
- ThS net change [6]: 11

SMILES: O=C(O)CCCc1ccc(N(CCCl)CCCl)cc1 [Chlorambucil]
- ThS net change [5]: 386

SMILES: O=C(N[C@H](CO)[C@H](O)c1ccc([N+](=O)[O-])cc1)C(Cl)Cl [Chloramphenicol]
- ThS net change [4]: 344

SMILES: CN1CCN(C(c2ccccc2)c2ccc(Cl)cc2)CC1 (centres unmarked) [Chlorcyclizine hydrochloride]
- ThS net change [4]: 337

SMILES: [H]/N=C(\N/C(=N/[H])NCCCCCCNC(=N)NC(=N)Nc1ccc(Cl)cc1)Nc1ccc(Cl)cc1 [Chlorhexidine]
- ThS net change [6]: 317

SMILES: CC(=O)O[C@]1(C(C)=O)CC[C@H]2[C@@H]3C=C(Cl)C4=CC(=O)CC[C@]4(C)[C@H]3CC[C@@]21C [Chlormadinone acetate]
- ThS net change [1]: 385

SMILES: CN1C(=O)CCS(=O)(=O)C1c1ccc(Cl)cc1 (centres unmarked) [Chlormezanone]
- ThS net change [5]: 389

SMILES: CN(C)CCN(Cc1ccc(Cl)cc1)c1ccccn1.Cl [Chloropyramine hydrochloride]
- ThS net change [2]: 421

SMILES: CCN(CC)CCCC(C)Nc1ccnc2cc(Cl)ccc12 (centres unmarked) [Chloroquine diphosphate]
- ThS net change [3]: 338

SMILES: NS(=O)(=O)c1cc2c(cc1Cl)N=CNS2(=O)=O [Chlorothiazide]
- ThS net change [4]: 359

SMILES: COc1ccc(C(Cl)=C(c2ccc(OC)cc2)c2ccc(OC)cc2)cc1 [Chlorotrianisene]
- ThS net change [6]: 235

SMILES: Oc1c(Cl)cc(Cl)c2cccnc12 [Chloroxine]
- ThS net change [6]: 288

SMILES: CN(C)CCC(c1ccc(Cl)cc1)c1ccccn1 (centres unmarked) [Chlorpheniramine maleate]
- ThS net change [3]: 354

SMILES: NC(=O)OCC(O)COc1ccc(Cl)cc1 (centres unmarked) [Chlorphensin carbamate]
- ThS net change [2]: 516

SMILES: CN(C)CCCN1c2ccccc2Sc2ccc(Cl)cc21 [Chlorpromazine hydrochloride]
- ThS net change [6]: 317

SMILES: CCCNC(=O)NS(=O)(=O)c1ccc(Cl)cc1 [Chlorpropamide]
- ThS net change [2]: 425

SMILES: CN(C)CC/C=C1/c2ccccc2Sc2ccc(Cl)cc21 [Chlorprothixene hydrochloride]
- ThS net change [1]: 392

SMILES: CN(C)[C@@H]1C(O)=C(C(N)=O)C(=O)[C@@]2(O)C(O)=C3C(=O)c4c(O)ccc(Cl)c4[C@@](C)(O)[C@H]3C[C@@H]12 [Chlortetracycline hydrochloride]
- ThS net change [6]: 223
